From patent US10633350B2, “Diphenyl derivatives and uses thereof” (NOVARTIS AG, priority 2017, dated 2020) come the findings set out here.

Molecules are shown by their SMILES.

One experiment has as its system Akt. As to the kind of experiment: Akt activation assay (Phospho-AKT (Ser473) antibody staining) in U2OS GFP-FoxO3a H212R reporter cells. To be noted: Homo sapiens, 0.5 h, serum starved overnight, 30 minutes compound treatment, total cellular intensity of Phospho-Akt (Ser473) antibody staining, AC50 = concentration that results in 50% activation or inhibition. The experiment is classed as cell-based. How it is done: Phosphorylation of Akt on S473 and FoxO3a nuclear to cytoplasmic translocation were used as readouts of PI3K/Akt/mTOR pathway activation downstream of growth factor signaling.
Reporter cell line. U2OS GFP-FoxO3a H212R reporter cell line was established by transducing U2OS cells with the retroviral plasmid pLEGFP-C1 containing FoxO3a H212R transgene and selecting for G418 resistant clones.
Reporter assay. U2OS GFP-FoxO3a H212R cells were plated in 384-well plates at 4000 cells per well in 30 microliters of McCoy's 5A medium containing 10% FBS. On day 1 the cells were washed with serum free medium and serum starved overnight. On day 2 the cells were treated with different doses of the compounds for 30 minutes, fixed with 4% Paraformaldehyde for 1 hour and stained with Phospho-AKT (Ser473) antibody (Cell Signaling Technology, catalog #4060) overnight at 4° C. After nuclei staining with Hoechst 33342 (Life Technologies, catalog # H3570) the plates were imaged with InCell 2000 (GE Healthcare Bio-Sciences). FoxO3a inhibition activity is calculated as the ratio of nuclear to cytosolic GFP intensity in percent. Akt activation is measured as the total cellular intensity of Phospho-Akt antibody staining in percent. DMSO control is set as 0% activity.

Another experiment has as its system FoxO3a. As to the kind of experiment: FoxO3a inhibition assay (GFP-FoxO3a nuclear to cytoplasmic translocation) in U2OS GFP-FoxO3a H212R reporter cells. The experiment is classed as cell-based. To be noted: Homo sapiens, 0.5 h, serum starved overnight, 30 minutes compound treatment, ratio of nuclear to cytosolic GFP intensity, AC50 = concentration that results in 50% activation or inhibition, read-out: FoxO AC50. An outline of the steps: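 Serum-starved (overnight) cells treated with compounds at various doses for 30 min, then fixed in 4% paraformaldehyde and stained overnight at 4 °C for pAkt S473 with Hoechst nuclear counterstain; high-content imaging. FoxO3a readout: nuclear/cytosolic GFP ratio (%); Akt readout: total cellular pAkt intensity (%); DMSO = 0% activity.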

The AC50 is the midpoint of the concentration-response curve, whichever way the signal moves. Take `Cc1cc(C(N)=O)nn1-c1ccc(Cc2ccc(-c3ccc4c(c3)CN(C)C4)cc2)cc1` [Example 3-13, 5-methyl-1-(4-(4-(2-methylisoindolin-5-yl)benzyl)phenyl)-1H-pyrazole-3-carboxamide]: the figures for the AC50 in the experiment on Akt and in the experiment on FoxO3a were 167 nM and 57 nM, respectively.
For `Cc1cc(C(N)=O)nn1-c1ccc(Cc2ccc(-c3cncc(CN(C)C)c3)cc2)cc1` [Example 5-6, 1-(4-(4-(5-((dimethylamino)methyl)pyridin-3-yl)benzyl)phenyl)-5-methyl-1H-pyrazole-3-carboxamide] the same measures were 1040 nM and 312 nM.
For `Cc1cc(C(N)=O)nn1-c1ccc(C(C)(C)c2ccc(-c3ccc4[nH]ncc4c3)cc2)cc1` [Example 6-4, 1-(4-(2-(4-(1H-indazol-5-yl)phenyl)propan-2-yl)phenyl)-5-methyl-1H-pyrazole-3-carboxamide] the same measures were 1040 nM and 517 nM.
On to `Cc1cc(C(N)=O)nn1-c1ccc(Cc2ccc(-c3ccc(CN4CCC[C@H]4CO)cc3)cc2)cc1` [Example 16-1, (S)-1-(4-((4′-((2-(hydroxymethyl)pyrrolidin-1-yl)methyl)-[1,1′-biphenyl]-4-yl)methyl)phenyl)-5-methyl-1H-pyrazole-3-carboxamide], for which the AC50 with Akt stood at 90 nM; with FoxO3a, 33 nM.
Regarding `Cc1cc(C(N)=O)nn1-c1ccc(Cc2ccc(-c3ccc(CN4CC(F)(F)C[C@@H]4CO)cc3)cc2)cc1` [Example 18, (R)-1-(4-((4′-((4,4-difluoro-2-(hydroxymethyl)pyrrolidin-1-yl)methyl)-[1,1′-biphenyl]-4-yl)methyl)phenyl)-5-methyl-1H-pyrazole-3-carboxamide], the AC50 was 394 nM in the experiment with Akt and 95 nM with FoxO3a.
For `Cc1nc(C(N)=O)nn1-c1ccc(Cc2ccc(-c3ccc(C(C)(C)CO)cc3)cc2)cc1` [Example 48, 1-(4-((4′-(1-hydroxy-2-methylpropan-2-yl)-[1,1′-biphenyl]-4-yl)methyl)phenyl)-5-methyl-1H-1,2,4-triazole-3-carboxamide] the same measures were 160 nM and 51 nM.
For `Cc1nc(C(N)=O)nn1-c1ccc(Cc2ccc(-c3ccc(CC4C[C@@H]5CN(C)C[C@@H]5C4)cc3)cc2)cc1` (stereo partly drawn) [Example 41, 5-methyl-1-(4-((4′-(((3aR,6aS)-2-methyloctahydrocyclopenta[c]pyrrol-5-yl)methyl)-[1,1′-biphenyl]-4-yl)methyl)phenyl)-1H-1,2,4-triazole-3-carboxamide], in that order: 91 nM and 114 nM.
In the case of `Cc1nc(C(N)=O)nn1-c1ccc(C(C)(C)c2ccc(-c3ccc(CN4CCCC4)cc3)cc2)cc1` [Example 13-1, 5-methyl-1-(4-(2-(4′-(pyrrolidin-1-ylmethyl)-[1,1′-biphenyl]-4-yl)propan-2-yl)phenyl)-1H-1,2,4-triazole-3-carboxamide], the values for the AC50 in the experiment on Akt and in the experiment on FoxO3a were 375 nM and 128 nM, respectively.
For the molecule `Cc1cc(C(N)=O)nn1-c1ccc(Cc2ccc(-c3ccc(S(C)(=O)=O)cc3)cc2)cc1` [Example 3-6, 5-methyl-1-(4-((4′-(methylsulfonyl)-[1,1′-biphenyl]-4-yl)methyl)phenyl)-1H-pyrazole-3-carboxamide], the figures for the AC50 in the experiment with Akt and with FoxO3a were 66 nM and 28 nM, respectively.
`Cc1cc(C(N)=O)nn1-c1ccc(Cc2ccc(-c3ccc(C(=O)N4CCNCC4)cc3)cc2)cc1` [Example 24, 5-methyl-1-(4-((4′-(piperazine-1-carbonyl)-[1,1′-biphenyl]-4-yl)methyl)phenyl)-1H-pyrazole-3-carboxamide]: the AC50 with Akt worked out at 155 nM; with FoxO3a it was 33 nM.
In the case of `Cc1nnc(-c2ccc(-c3ccc(Cc4ccc(-n5nc(C(N)=O)cc5C)cc4)cc3)cc2)o1` [Example 3-9, 5-methyl-1-(4-((4′-(5-methyl-1,3,4-oxadiazol-2-yl)-[1,1′-biphenyl]-4-yl)methyl)phenyl)-1H-pyrazole-3-carboxamide], the AC50 in the experiment with Akt worked out at 63 nM; in the experiment with FoxO3a, 29 nM.
For `Cc1nc(C(N)=O)nn1-c1ccc(Cc2ccc(-c3ccc(CN4CCC(CN(C)C)CC4)cc3)cc2)cc1` [Example 39-1, 1-(4-((4′-((4-((dimethylamino)methyl)piperidin-1-yl)methyl)-[1,1′-biphenyl]-4-yl)methyl)phenyl)-5-methyl-1H-1,2,4-triazole-3-carboxamide], the values for the AC50 with Akt and in the experiment with FoxO3a were 615 nM and 195 nM, respectively.
For the molecule `Cc1nc(C(N)=O)nn1-c1ccc(Cc2ccc(-c3ccc(S(=O)(=O)NCC(C)(C)O)cc3)cc2)cc1` [Example 50, 1-(4-((4′-(N-(2-hydroxy-2-methylpropyl)sulfamoyl)-[1,1′-biphenyl]-4-yl)methyl)phenyl)-5-methyl-1H-1,2,4-triazole-3-carboxamide], the AC50 with Akt is 117 nM; in the experiment with FoxO3a, 36 nM.
Take `Cc1nc(C(N)=O)nn1-c1ccc(Cc2ccc(-c3ccc(CN4CCNCC4)cc3)cc2)cc1` [Example 45, 5-methyl-1-(4-((4′-(piperazin-1-ylmethyl)-[1,1′-biphenyl]-4-yl)methyl)phenyl)-1H-1,2,4-triazole-3-carboxamide]: the AC50 came out at 3 nM in the experiment with Akt and 130 nM with FoxO3a.
For `Cc1nc(C(N)=O)nn1-c1ccc(Cc2ccc(-c3ccc(C(=O)N4CCN(C)CC4)cc3)cc2)cc1` [Example 15-3], the AC50 in the experiment with Akt is 188 nM; in the experiment with FoxO3a, 60 nM.
For `Cc1nc(C(N)=O)nn1-c1ccc(C(C)(C)c2ccc(-c3cnc4c(c3)OCCN4C)cc2)cc1` [Example 13-11], in that order: 1000 nM and 416 nM.
For `Cc1nc(C(N)=O)nn1-c1ccc(Cc2ccc(-c3ccc(CN4CCC5(CCO5)CC4)cc3)cc2)cc1` [Example 39-37], the AC50 in the experiment on Akt came to 270 nM; in the experiment on FoxO3a it was 81 nM.
With `Cc1cc(C(N)=O)nn1-c1ccc(Cc2ccc(-c3ccc4c(c3)CNC4)cc2)cc1` [Example 3-4, 1-(4-(4-(isoindolin-5-yl)benzyl)phenyl)-5-methyl-1H-pyrazole-3-carboxamide], the AC50 worked out at 268 nM with Akt and 75 nM in the experiment on FoxO3a.
In the case of `Cc1nc(C(N)=O)nn1-c1ccc(Cc2ccc(-c3ccc(CN4CCC5(CC4)COC5)cc3)cc2)cc1` [Example 38-8], the AC50 was 211 nM with Akt and 51 nM in the experiment on FoxO3a.
With `Cc1cc(C(N)=O)nn1-c1ccc(Cc2ccc(-c3ccncc3)cc2)cc1` [Example 3-5, 5-methyl-1-(4-(4-(pyridin-4-yl)benzyl)phenyl)-1H-pyrazole-3-carboxamide], the figures for the AC50 in the experiment with Akt and in the experiment with FoxO3a were 156 nM and 61 nM, respectively.
Take `Cc1cc(C(N)=O)nn1-c1ccc(Cc2ccc(C3CCN(C)CC3)cc2)cc1` [Example 4, 5-methyl-1-(4-(4-(1-methylpiperidin-4-yl)benzyl)phenyl)-1H-pyrazole-3-carboxamide]: the half-maximal activity concentration (AC50) with Akt is 1220 nM; with FoxO3a it was 325 nM.
With `Cc1cc(C(N)=O)nn1-c1ccc(C(C)(C)c2ccc(-c3ccccn3)cc2)cc1` [Example 10, 5-methyl-1-(4-(2-(4-(pyridin-2-yl)phenyl)propan-2-yl)phenyl)-1H-pyrazole-3-carboxamide], the AC50 with Akt stood at 733 nM; in the experiment on FoxO3a, 470 nM.
`CCN(CC)Cc1ccc(-c2ccc(Cc3ccc(-n4nc(C(N)=O)cc4C)cc3)cc2)cc1` [Example 3-2, 1-(4-((4′-((diethylamino)methyl)-[1,1′-biphenyl]-4-yl)methyl)phenyl)-5-methyl-1H-pyrazole-3-carboxamide]: the AC50 with Akt turned out to be 341 nM; in the experiment with FoxO3a, 236 nM.
